Data set [1] in a line: Cytotoxicity against LPS-induced mouse RAW264.7 cells assessed as cell viability at 1 uM incubated for 24 hrs by MTT assay relative to control. Conditions: LPS-induced RAW264.7 cells, read-out: Activity. The class given is cell-based. (In general: Formazan colour is commonly taken as a measure of viable cells.)
Data set [2] relates to RAW264.7. Description: Anti-inflammatory activity in mouse RAW264.7 cells assessed as inhibition of LPS-induced PGE2 production at 1 uM preincubated for 1 hr followed by LPS addition and measured after 24 hrs by EIA relative to control. It counts as functional.
The subject of data set [3] is RAW264.7. Description: Anti-inflammatory activity in mouse RAW264.7 cells assessed as inhibition of LPS-induced NO production at 1 uM preincubated for 1 hr followed by LPS addition and measured after 24 hrs by Griess reagent-based assay relative to control. The class given is functional. In general terms: Griess reagent forms a coloured azo dye with nitrite.
Data set [4] concerns RAW264.7. Description: Anti-inflammatory activity in mouse RAW264.7 cells assessed as inhibition of LPS-induced TNFalpha production at 1 uM preincubated for 1 hr followed by LPS addition and measured after 24 hrs by EIA relative to control. The class given is functional.
Data set [5] deals with RAW264.7. The experiment in a line: Anti-inflammatory activity in mouse RAW264.7 cells assessed as inhibition of LPS-induced IL-1beta production at 1 uM preincubated for 1 hr followed by LPS addition and measured after 24 hrs by EIA relative to control. It counts as functional.
Data set [6] has as its system RAW264.7. Description: Anti-inflammatory activity in mouse RAW264.7 cells assessed as inhibition of LPS-induced IL-6 production at 1 uM preincubated for 1 hr followed by LPS addition and measured after 24 hrs by EIA relative to control. The class given is functional.
The test system of data set [7] is RAW264.7. The experiment in a line: Anti-inflammatory activity in mouse RAW264.7 cells assessed as inhibition of LPS-induced PGE2 production preincubated for 1 hr followed by LPS addition and measured after 24 hrs by EIA. It counts as functional, cell-based.
The subject of data set [8] is RAW264.7. The experiment in a line: Anti-inflammatory activity in mouse RAW264.7 cells assessed as inhibition of LPS-induced PGE2 production at 0.2 uM preincubated for 1 hr followed by LPS addition and measured after 24 hrs by EIA. The class given is functional, cell-based.

Structures are written as SMILES. pIC50: −log10 of the molar value. Active and inactive are the calls of the source. The rule behind the calls is not given here.

We go through 22 molecules from ChEMBL document CHEMBL4359854, “Repurposing mosloflavone/5,6,7-trimethoxyflavone-resveratrol hybrids: Discovery of novel p38-α MAPK inhibitors as potent interceptors of macrophage-dependent production of proinflammatory mediators” (Eur J Med Chem, 2019).

As a reminder, the inhibition is the drop in the measured response relative to a control, in per cent. One may read the pIC50 as the IC50 on a negative log10 scale, so that one unit is a factor of ten.

As for `COc1cc2oc(-c3cccc(C(=O)Nc4ccccc4)c3)cc(=O)c2c(OC)c1OC`, the viability at 24 h, 1 µM in data set [1] is 90.6%. For the same molecule, the inhibition at 1 µM in the data set with RAW264.7 [2] was -10.9%; in the data set on RAW264.7 [3] it was 13%; in the data set with RAW264.7 [4], 24.2%; in the data set on RAW264.7 [5], 86.8%; in the data set with RAW264.7 [6], 12.5%.

Consider `COc1ccc(NC(=O)c2cccc(-c3cc(=O)c4c(O)c(OC)c(OC)cc4o3)c2)cc1`, for which the viability at 24 h, 1 µM in data set [1] amounted to 92.8%. The inhibition at 1 µM in the data set on RAW264.7 [2] is 3.44%; in the data set with RAW264.7 [3], -10.3%; in the data set with RAW264.7 [4], -0.1%; in the data set on RAW264.7 [5], 13.1%; with RAW264.7 [6] it was 10.2%.

Take `COc1ccc(NC(=O)c2cccc(-c3cc(=O)c4c(OC)c(OC)c(OC)cc4o3)c2)cc1`: in data set [1], the viability at 24 h, 1 µM amounted to 90%. Moreover, the inhibition at 1 µM with RAW264.7 [2] came out at 2.29%; with RAW264.7 [3], 6.87%; with RAW264.7 [4] it was 25.3%; with RAW264.7 [5], 128%; in the data set on RAW264.7 [6], 19.2%.

`COc1cc2oc(-c3cccc(C(=O)Nc4ccc5c(c4)OCO5)c3)cc(=O)c2c(OC)c1OC`: the viability at 24 h, 1 µM in data set [1] amounted to 92%. The inhibition at 1 µM was 16.1% with RAW264.7 [2]; 17% in the data set with RAW264.7 [3]; 9.94% in the data set with RAW264.7 [4]; -54.4% in the data set with RAW264.7 [5]; 25.7% with RAW264.7 [6].

In the case of `COc1cccc(C(=O)Nc2cccc(-c3cc(=O)c4c(O)c(OC)c(OC)cc4o3)c2)c1`, the viability at 24 h, 1 µM in data set [1] was determined as 109%. Besides, the inhibition at 1 µM in the data set on RAW264.7 [2] is 35.4%; in the data set with RAW264.7 [3], 6.46%; with RAW264.7 [4], 33.8%; with RAW264.7 [5] it was 35.8%; in the data set with RAW264.7 [6], -6.92%.

Consider `COc1ccc(C(=O)Nc2cccc(-c3cc(=O)c4c(OC)c(OC)c(OC)cc4o3)c2)cc1`, for which, in data set [1], the viability at 24 h, 1 µM worked out at 102%. For the same molecule, the inhibition at 1 µM was 6.21% with RAW264.7 [2]; 11.1% in the data set on RAW264.7 [3]; 20.4% with RAW264.7 [4]; 12.2% in the data set with RAW264.7 [5]; -12.5% in the data set on RAW264.7 [6].

For the molecule `COc1cccc(NC(=O)c2cccc(-c3cc(=O)c4c(O)c(OC)c(OC)cc4o3)c2)c1`, in data set [1], the viability at 24 h, 1 µM worked out at 103%. In addition, the inhibition at 1 µM turned out to be 35.4% in the data set with RAW264.7 [2]; 10.9% in the data set with RAW264.7 [3]; 5.85% in the data set on RAW264.7 [4]; 18.5% in the data set with RAW264.7 [5]; 1.96% in the data set on RAW264.7 [6].

For the molecule `COc1cc2oc(-c3cccc(C(=O)Nc4ccccc4)c3)cc(=O)c2c(O)c1OC`, the viability at 24 h, 1 µM in data set [1] is 103%. The inhibition at 1 µM in the data set on RAW264.7 [2] was 20%; with RAW264.7 [3], 5.15%; in the data set with RAW264.7 [4], 45.6%; with RAW264.7 [5] it was 23.3%; with RAW264.7 [6], -5.27%.

As to `COc1ccccc1NC(=O)c1cccc(-c2cc(=O)c3c(OC)c(OC)c(OC)cc3o2)c1`, the viability at 24 h, 1 µM in data set [1] amounted to 101%. The inhibition at 1 µM is 42.5% in the data set on RAW264.7 [2]; 20.6% in the data set with RAW264.7 [3]; 22.9% in the data set on RAW264.7 [4]; 71.2% with RAW264.7 [5]; -32.2% with RAW264.7 [6]. In addition, in the data set with RAW264.7 [7], the pIC50 was 5.70. Moreover, in the data set with RAW264.7 [7], the inhibition entry is “Dose-dependent effect”. In the data set on RAW264.7 [8], the inhibition result was “Active”.

`COc1cc2oc(-c3cccc(NC(=O)c4ccccc4)c3)cc(=O)c2c(OC)c1OC`: the viability at 24 h, 1 µM in data set [1] was found to be 95.8%. Further, the inhibition at 1 µM was -11.3% in the data set on RAW264.7 [2]; 3.31% with RAW264.7 [3]; 20.9% in the data set with RAW264.7 [4]; 16.5% in the data set on RAW264.7 [5]; -17% in the data set on RAW264.7 [6].

Consider `COc1cc2oc(-c3cccc(C(=O)Nc4ccc5c(c4)OCO5)c3)cc(=O)c2c(O)c1OC`, for which, in data set [1], the viability at 24 h, 1 µM is 97.1%. The inhibition at 1 µM in the data set with RAW264.7 [2] was -2.8%; in the data set with RAW264.7 [3] it was -5.15%; in the data set on RAW264.7 [4] it was -7.5%; in the data set on RAW264.7 [5], 27.1%; in the data set with RAW264.7 [6], 12.8%.

Consider `COc1ccc(C(=O)Nc2ccc(-c3cc(=O)c4c(OC)c(OC)c(OC)cc4o3)cc2)cc1`, for which the viability at 24 h, 1 µM in data set [1] turned out to be 92.4%. In addition, the inhibition at 1 µM in the data set with RAW264.7 [2] was 36.8%; with RAW264.7 [3], 3.26%; in the data set on RAW264.7 [4], 27.4%; with RAW264.7 [5], -2.33%; in the data set with RAW264.7 [6] it was -40.9%.

Take `COc1cc2oc(-c3cccc(NC(=O)c4ccc5c(c4)OCO5)c3)cc(=O)c2c(O)c1OC`: the viability at 24 h, 1 µM in data set [1] is 104%. Moreover, the inhibition at 1 µM in the data set on RAW264.7 [2] was 49.3%; in the data set on RAW264.7 [3] it was 7.46%; in the data set with RAW264.7 [4], -12.1%; in the data set with RAW264.7 [5] it was 11.6%; in the data set on RAW264.7 [6], -6.67%.

On to `COc1cccc(NC(=O)c2cccc(-c3cc(=O)c4c(OC)c(OC)c(OC)cc4o3)c2)c1`, for which, in data set [1], the viability at 24 h, 1 µM is 84.2%. For the same molecule, the inhibition at 1 µM in the data set with RAW264.7 [2] was -11.4%; with RAW264.7 [3] it was 12.3%; with RAW264.7 [4], 34.1%; with RAW264.7 [5], 82.6%; with RAW264.7 [6], 7.66%.

Turning to `COc1cccc(C(=O)Nc2ccc(-c3cc(=O)c4c(OC)c(OC)c(OC)cc4o3)cc2)c1`, the viability at 24 h, 1 µM in data set [1] turned out to be 111%. In addition, the inhibition at 1 µM is 16.1% in the data set with RAW264.7 [2]; 9.41% in the data set with RAW264.7 [3]; -9.17% with RAW264.7 [4]; 4.65% in the data set on RAW264.7 [5]; -47.5% with RAW264.7 [6].

Turning to `COc1cc2oc(-c3ccc(NC(=O)c4ccc5c(c4)OCO5)cc3)cc(=O)c2c(OC)c1OC`, the viability at 24 h, 1 µM in data set [1] was determined as 63%.

In the case of `COc1ccccc1C(=O)Nc1cccc(-c2cc(=O)c3c(OC)c(OC)c(OC)cc3o2)c1`, in data set [1], the viability at 24 h, 1 µM worked out at 99.8%. Also, the inhibition at 1 µM in the data set on RAW264.7 [2] is 33.9%; in the data set on RAW264.7 [3], 1.11%; with RAW264.7 [4] it was -83.9%; with RAW264.7 [5], 25.2%; in the data set with RAW264.7 [6] it was -15.8%.

On to `COc1ccccc1NC(=O)c1cccc(-c2cc(=O)c3c(O)c(OC)c(OC)cc3o2)c1`, for which the viability at 24 h, 1 µM in data set [1] worked out at 99.4%. For the same molecule, the inhibition at 1 µM in the data set on RAW264.7 [2] was 50.5%; with RAW264.7 [3], 7.19%; in the data set on RAW264.7 [4] it was 36.1%; with RAW264.7 [5] it was -2.41%; in the data set on RAW264.7 [6], -21.4%. In the data set on RAW264.7 [7], the pIC50 was 5.62. Moreover, the inhibition entry in the data set on RAW264.7 [7] was “Dose-dependent effect”. The inhibition entry in the data set with RAW264.7 [8] is “Active”.

As for `COc1cc2oc(-c3cccc(NC(=O)c4ccc5c(c4)OCO5)c3)cc(=O)c2c(OC)c1OC`, the viability at 24 h, 1 µM in data set [1] was found to be 116%. For the same molecule, the inhibition at 1 µM is 17.1% with RAW264.7 [2]; 7.13% in the data set with RAW264.7 [3]; -40.6% in the data set on RAW264.7 [4]; 38.2% in the data set on RAW264.7 [5]; -9.56% with RAW264.7 [6].

`COc1cc2oc(-c3ccc(NC(=O)c4ccccc4)cc3)cc(=O)c2c(OC)c1OC`: the viability at 24 h, 1 µM in data set [1] was found to be 109%. Moreover, the inhibition at 1 µM is 7% in the data set on RAW264.7 [2]; 9.71% in the data set on RAW264.7 [3]; -8.22% with RAW264.7 [4]; -30.2% in the data set with RAW264.7 [5]; -23.2% in the data set on RAW264.7 [6].

As for `COc1ccc(C(=O)Nc2cccc(-c3cc(=O)c4c(O)c(OC)c(OC)cc4o3)c2)cc1`, the viability at 24 h, 1 µM in data set [1] worked out at 105%. Also, the inhibition at 1 µM in the data set with RAW264.7 [2] was 52.7%; in the data set on RAW264.7 [3] it was 6.52%; with RAW264.7 [4] it was 48.2%; with RAW264.7 [5] it was 34.6%; in the data set on RAW264.7 [6], -7.54%.

Turning to `COc1cccc(C(=O)Nc2cccc(-c3cc(=O)c4c(OC)c(OC)c(OC)cc4o3)c2)c1`, in data set [1], the viability at 24 h, 1 µM amounted to 117%. Moreover, the inhibition at 1 µM in the data set with RAW264.7 [2] is 2.62%; in the data set on RAW264.7 [3], 19.9%; in the data set with RAW264.7 [4] it was -88%; with RAW264.7 [5], 75.6%; in the data set on RAW264.7 [6] it was -52.5%.
